From patent US20040171086A1, “Selective modulation of TLR-mediated biological activity” (3M Innovative Properties Company, priority 2003, published 2004)

Legend:
TLR7 = molecular target: T1, TLR7 (Homo sapiens, UniProt Q9NYK1); experiment: IFN-α1-luciferase reporter assay in genetically modified Namalwa cells, TLR7; assay type: cell-based; set-up: expressed in transfected cells; host or cells: Namalwa (ATCC CRL-1432); conditions: 10 μM IRM, 18 hours
T1 sequence (Q9NYK1 27-1049): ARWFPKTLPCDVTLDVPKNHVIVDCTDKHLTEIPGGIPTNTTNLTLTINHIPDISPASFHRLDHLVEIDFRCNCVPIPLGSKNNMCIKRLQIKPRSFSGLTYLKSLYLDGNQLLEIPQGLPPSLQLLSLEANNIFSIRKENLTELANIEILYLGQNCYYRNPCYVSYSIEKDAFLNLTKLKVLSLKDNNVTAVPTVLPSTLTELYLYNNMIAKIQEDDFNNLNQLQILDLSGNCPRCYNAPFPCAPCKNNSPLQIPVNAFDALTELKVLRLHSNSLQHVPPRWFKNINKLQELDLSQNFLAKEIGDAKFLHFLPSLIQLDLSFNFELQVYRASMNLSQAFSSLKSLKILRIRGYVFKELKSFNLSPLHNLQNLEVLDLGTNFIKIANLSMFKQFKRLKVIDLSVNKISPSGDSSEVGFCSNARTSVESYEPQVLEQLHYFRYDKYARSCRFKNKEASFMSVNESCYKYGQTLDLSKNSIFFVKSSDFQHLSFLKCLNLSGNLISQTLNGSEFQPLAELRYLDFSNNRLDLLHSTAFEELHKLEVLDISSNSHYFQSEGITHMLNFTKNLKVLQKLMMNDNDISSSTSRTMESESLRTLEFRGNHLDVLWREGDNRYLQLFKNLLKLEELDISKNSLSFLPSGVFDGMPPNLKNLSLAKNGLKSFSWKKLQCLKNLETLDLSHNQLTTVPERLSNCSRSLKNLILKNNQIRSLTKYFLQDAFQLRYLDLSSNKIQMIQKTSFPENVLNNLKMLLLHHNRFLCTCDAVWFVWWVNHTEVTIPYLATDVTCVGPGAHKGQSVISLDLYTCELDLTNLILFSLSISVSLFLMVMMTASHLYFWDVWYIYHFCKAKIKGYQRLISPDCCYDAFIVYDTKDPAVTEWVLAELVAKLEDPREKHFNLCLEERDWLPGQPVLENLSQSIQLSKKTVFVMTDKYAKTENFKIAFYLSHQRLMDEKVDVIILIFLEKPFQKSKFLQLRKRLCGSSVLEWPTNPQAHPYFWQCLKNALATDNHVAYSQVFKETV
Protocol: (§1) Results are shown in Table 6 and are expressed as fold induction of IFN-α1 —induced luciferase signal, again with respect to a vehicle control.
(§2) The assay identified TLR6-selective compounds (i.e., compounds that modulate TLR6-mediated activity, but not TLR7-mediated activity), TLR7-selective compounds (compounds that modulate TLR7-mediated activity, but not TLR6-mediated activity), and compounds that modulate cellular activity through both TLR6 and TLR7.
(§3) Unless otherwise indicated, all incubations were performed at 37° C. with 5% CO2 at 98% humidity.
(§4) Culture medium was prepared from complete RPMI 1640 medium (BioSource International, Inc., Camarillo, Calif.). Fetal bovine serum (Atlas Biologicals, Inc., Ft. Collins, Colo.) was added to a final concentration of 7.5% (vol/vol); L-glutamine (BioSource International, Inc.) was added to 5 mM; and sodium pyruvate (BioSource International, Inc.) was added to 1 mM.
Namalwa cells were grown by incubation in culture medium overnight. Cells were harvested by centrifugation in a tabletop centrifuge (1200 RPM for 5 minutes), and then resuspended in phosphate buffered sucrose to a concentration of 1.3×10^7 cells/mL. […]
(§5) The electroporated cells were suspended in 10 mLs of culture medium and incubated overnight. Dead cells and debris were removed after 24 hours using a MACS Dead Cell Removal kit (Miltenyi Biotec, Auburn, Calif.). Cells were resuspended in 10 mL of culture medium and incubated for an additional 24 hours.
(§6) Transfected cells were selected by adding G418 (Promega Corp., Madison, Wis.) to a final concentration of 1 mg/mL and incubating the cells for seven days.
(§7) The selected transfected cells were counted and resuspended to a concentration of 1×10^6 cell per mL in culture medium. 100 μl aliquots of cells were placed in the wells of a white-walled, white-bottomed 96-well plate (Corning, Inc., Corning, N.Y.). 1.0 μL of an IRM compound from Table 1 (prepared at 1 mM in 100% DMSO) was added to some cell aliquots so that the final concentration of IRM compound was 10 μM. As a positive control, some cell aliquots were incubated with Sendai virus instead of IRM compound. As a negative control, some cell aliquots were incubated with DMSO without IRM compound. In all cases, the cells were incubated for 18 hours.
(§8) The plates were equilibrated to room temperature before one volume of reconstituted LucLight Plus (Packard Instruments, Meriden, Conn.) was added to each aliquot of cells. Each well of the plate was read on an LJL Analyst (LJL Biosystems, Inc., Sunnyvale, Calif.) set with a 5 minute dark adapt. Results are shown in Table 6 and are expressed as fold increase of the IFN-αl—induced luciferase signal compared to a DMSO control.

TLR6 = molecular target: T2, TLR6 (Homo sapiens, UniProt Q9Y2C9); experiment: IFN-α1-luciferase reporter assay in genetically modified Namalwa cells, TLR6; assay type: cell-based; conditions: 10 μM IRM, 18 hours
T2 construct: expressed in transfected cells; host or cells: Namalwa (ATCC CRL-1432), pCI-TLR6 vector, G418 selected
T2 sequence (Q9Y2C9 32-796): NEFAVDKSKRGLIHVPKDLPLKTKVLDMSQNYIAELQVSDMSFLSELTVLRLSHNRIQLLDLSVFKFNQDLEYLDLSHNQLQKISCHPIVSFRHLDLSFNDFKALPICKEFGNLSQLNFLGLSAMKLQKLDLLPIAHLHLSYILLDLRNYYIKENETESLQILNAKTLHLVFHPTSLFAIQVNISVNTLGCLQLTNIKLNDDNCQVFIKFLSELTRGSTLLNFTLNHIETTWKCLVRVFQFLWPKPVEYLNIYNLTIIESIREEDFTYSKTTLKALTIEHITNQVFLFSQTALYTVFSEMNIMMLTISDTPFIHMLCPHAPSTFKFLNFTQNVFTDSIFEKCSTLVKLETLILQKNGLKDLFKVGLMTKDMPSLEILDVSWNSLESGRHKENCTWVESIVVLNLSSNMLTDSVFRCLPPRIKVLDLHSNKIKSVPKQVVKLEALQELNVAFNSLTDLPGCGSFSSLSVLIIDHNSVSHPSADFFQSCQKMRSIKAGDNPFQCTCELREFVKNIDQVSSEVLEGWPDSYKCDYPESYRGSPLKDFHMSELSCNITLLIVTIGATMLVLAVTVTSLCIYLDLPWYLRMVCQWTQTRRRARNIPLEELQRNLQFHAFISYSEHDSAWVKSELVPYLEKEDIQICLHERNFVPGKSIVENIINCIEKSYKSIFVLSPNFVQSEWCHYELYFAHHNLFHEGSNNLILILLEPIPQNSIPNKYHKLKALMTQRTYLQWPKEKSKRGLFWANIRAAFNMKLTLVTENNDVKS
Protocol: as §1, §2, §3, §4
Namalwa cells were grown by incubation in culture medium overnight. Cells were harvested by centrifugation in a tabletop centrifuge (1200 RPM for 5 minutes), and then resuspended in phosphate buffered sucrose to a concentration of 1.3×10^7 cells/mL.
For each transfection, a 750 μL aliquot of the cell suspension was placed in an electroporation cuvette with 4 mm gaps. 10 μg of the pIFN-α1-luc vector and 10 μg of the pCI-TLR6 vector were added to the electroporation cuvette. The cell and vector mixtures were incubated at room temperature for 5 minutes. The cells were electroporated using a BioRad Gene Pulser (BioRad Laboratories, Hercules, Calif.) set to at 500 μF capacitance and […], then incubated at room temperature for 5 minutes.
as §5, §6, §7, §8

## Nc1nc2ccccc2c2c1ncn2CCCCCCCCNC(=O)c1ccccc1 [IRM43, N-[8-(4-amino-1H-imidazo[4,5-c]quinolin-1-yl)octyl]benzamide]
TLR7
  TLR7: fold increase of the IFN-α1-induced luciferase signal compared to a DMSO control: 2.17 fold increase
TLR6
  TLR6: fold increase of the IFN-α1-induced luciferase signal compared to a DMSO control: 1.07 fold increase

## COCCc1nc2c(N)nc3ccccc3c2n1CCOCCNC(=O)N1CCOCC1 [IRM49, N-(2-{2-[4-amino-2-(2-methoxyethyl)-1H-imidazo[4,5-c]quinolin-1-yl]ethoxy}ethyl)morpholine-4-carboxamide]
TLR7
  TLR7: fold increase of the IFN-α1-induced luciferase signal compared to a DMSO control: 1.95 fold increase
TLR6
  TLR6: fold increase of the IFN-α1-induced luciferase signal compared to a DMSO control: 10.92 fold increase

## Cc1nc2c(N)nc3ccccc3c2n1CC(C)(C)O [IRM34, 4-amino-α,α,2-trimethyl-1H-imidazo[4,5-c]quinoline-1-ethanol]
TLR7
  TLR7: fold increase of the IFN-α1-induced luciferase signal compared to a DMSO control: 3.37 fold increase
TLR6
  TLR6: fold increase of the IFN-α1-induced luciferase signal compared to a DMSO control: 10.80 fold increase

## Nc1nc2ccccc2c2c1ncn2COCCOc1ccc([N+](=O)[O-])cc1 [IRM29, 1-{[2-(4-nitrophenoxy)ethoxy]methyl}-1H-imidazo[4,5-c]quinolin-4-amine]
TLR7
  TLR7: fold increase of the IFN-α1-induced luciferase signal compared to a DMSO control: 1.32 fold increase
TLR6
  TLR6: fold increase of the IFN-α1-induced luciferase signal compared to a DMSO control: 4.57 fold increase

## Nc1nc2ccccc2c2c1ncn2CCOCc1cc2ccccc2o1 [IRM31, 1-[2-(benzo[b]furan-2-ylmethoxy)ethyl]-1H-imidazo[4,5-c]quinolin-4-amine]
TLR7
  TLR7: fold increase of the IFN-α1-induced luciferase signal compared to a DMSO control: 1.63 fold increase
TLR6
  TLR6: fold increase of the IFN-α1-induced luciferase signal compared to a DMSO control: 3.40 fold increase

## CCCCc1nc2c(N)nc3ccccc3c2n1CCCCNS(=O)(=O)c1ccc2ccccc2c1 [IRM30, N^2-[4-(4-amino-2-butyl-1H-imidazo[4,5-c]quinolin-1-yl)butyl]-2-naphthalenesulfonamide]
TLR7
  TLR7: fold increase of the IFN-α1-induced luciferase signal compared to a DMSO control: 1.28 fold increase
TLR6
  TLR6: fold increase of the IFN-α1-induced luciferase signal compared to a DMSO control: 4.38 fold increase

## CCCCc1nc2c(N)nc3ccccc3c2n1CCCNC(=O)Nc1ccccc1 [IRM32, N-[3-(4-amino-2-butyl-1H-imidazo[4,5-c]quinolin-1-yl)propyl]-N′-phenylurea]
TLR7
  TLR7: fold increase of the IFN-α1-induced luciferase signal compared to a DMSO control: 1.77 fold increase
TLR6
  TLR6: fold increase of the IFN-α1-induced luciferase signal compared to a DMSO control: 7.47 fold increase

## CCCCc1nc2c(N)nc3cccnc3c2n1CCNC(=O)c1ccc(Br)o1 [IRM23, N^2-[2-(4-amino-2-butyl-1H-imidazo[4,5-c][1,5]naphthyridin-1-yl)ethyl]-5-bromo-2-furamide]
TLR7
  TLR7: fold increase of the IFN-α1-induced luciferase signal compared to a DMSO control: 2.02 fold increase
TLR6
  TLR6: fold increase of the IFN-α1-induced luciferase signal compared to a DMSO control: 0.90 fold increase

## Nc1nc2ccccc2c2c1ncn2CCCC(=O)c1ccccc1 [IRM46, 4-(4-amino-1H-imidazo[4,5-c]quinolin-1-yl)-1-phenylbutan-1-one]
TLR7
  TLR7: fold increase of the IFN-α1-induced luciferase signal compared to a DMSO control: 1.83 fold increase
TLR6
  TLR6: fold increase of the IFN-α1-induced luciferase signal compared to a DMSO control: 3.75 fold increase

## CN(C)c1cccc(CCCOCCn2cnc3c(N)nc4ccccc4c32)c1 [IRM25, 1-(2-{3-[3-(dimethylamino)phenyl]propoxy}ethyl)-1H-imidazo[4,5-c]quinolin-4-amine]
TLR7
  TLR7: fold increase of the IFN-α1-induced luciferase signal compared to a DMSO control: 2.89 fold increase
TLR6
  TLR6: fold increase of the IFN-α1-induced luciferase signal compared to a DMSO control: 0.04 fold increase
